This assay concerns the target E. coli SQR (pFAS, SdhABCD^+) (Escherichia coli, UniProt P0AC41). Description: PES-DCIP assay and Clark O2 electrode, IMVs. It is filed as biochemical. The note with it: pH 7.5 (50 mM MOPS).

Sequence of E. coli SQR (pFAS, SdhABCD^+) (P0AC41 whole entry): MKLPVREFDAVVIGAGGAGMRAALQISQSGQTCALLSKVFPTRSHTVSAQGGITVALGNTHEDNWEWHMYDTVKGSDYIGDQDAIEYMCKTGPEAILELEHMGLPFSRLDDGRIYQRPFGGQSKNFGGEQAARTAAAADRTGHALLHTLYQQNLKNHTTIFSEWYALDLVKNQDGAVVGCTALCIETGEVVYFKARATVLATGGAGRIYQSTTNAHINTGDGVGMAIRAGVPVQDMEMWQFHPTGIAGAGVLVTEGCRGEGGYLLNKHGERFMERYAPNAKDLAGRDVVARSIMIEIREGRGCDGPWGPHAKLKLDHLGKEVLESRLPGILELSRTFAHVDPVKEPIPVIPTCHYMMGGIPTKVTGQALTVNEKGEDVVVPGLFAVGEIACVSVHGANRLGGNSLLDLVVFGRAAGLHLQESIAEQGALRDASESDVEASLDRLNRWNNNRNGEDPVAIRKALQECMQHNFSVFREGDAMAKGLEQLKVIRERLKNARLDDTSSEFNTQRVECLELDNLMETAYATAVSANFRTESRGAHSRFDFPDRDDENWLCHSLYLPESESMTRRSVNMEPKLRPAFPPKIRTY
Sequence of E. coli SQR (pFAS, SdhABCD^+) (P07014 whole entry partner): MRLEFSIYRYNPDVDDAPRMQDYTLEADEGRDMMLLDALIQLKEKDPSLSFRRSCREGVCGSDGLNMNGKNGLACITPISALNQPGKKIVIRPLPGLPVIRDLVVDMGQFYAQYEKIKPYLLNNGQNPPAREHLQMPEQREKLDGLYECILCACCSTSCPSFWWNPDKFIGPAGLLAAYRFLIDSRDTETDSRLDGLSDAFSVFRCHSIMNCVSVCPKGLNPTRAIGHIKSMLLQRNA
Sequence of E. coli SQR (pFAS, SdhABCD^+) (P69054 whole entry partner): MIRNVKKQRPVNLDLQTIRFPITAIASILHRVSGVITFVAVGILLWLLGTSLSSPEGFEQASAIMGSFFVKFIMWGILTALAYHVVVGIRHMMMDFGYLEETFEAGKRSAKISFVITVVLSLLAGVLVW
Sequence of E. coli SQR (pFAS, SdhABCD^+) (P0AC44 whole entry partner): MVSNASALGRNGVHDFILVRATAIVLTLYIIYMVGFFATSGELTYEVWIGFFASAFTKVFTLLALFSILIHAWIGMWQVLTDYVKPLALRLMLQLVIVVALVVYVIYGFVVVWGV

Turning to `O=C(O)CCC(=O)O` [succinate], the “PES-DCIP assay and Clark O2 electrode, IMVs” value is “E. coli strains overexpressing either the SQR operon (pFAS, SdhABCD^+)”.
